# In PubChem BioAssay AID1996:
# Conditions: buffer; pH 7.4; 200.0 µM
row,Structure (SMILES),solubility kinetic [µg/mL]
1,Cc1ccccc1Nc1nc(-c2cccnc2)cs1,11.2
2,CN(Cc1ccccc1)C(=O)COC(=O)c1ccc(Br)c(S(=O)(=O)N2CCOCC2)c1,36.7
3,CC(=O)NCCc1nc2ccccc2n1CCOc1ccc(C)cc1,> 50.6
4,Cc1ccc(Nc2nc(N)c3ccccc3n2)cc1C.Cl,5.9
5,O=S(=O)(Cc1ccccc1)N1CCN(c2ncccn2)CC1,2.3
6,CCOC(=O)N1CCN(C(=O)c2cc3cc(C)ccc3[nH]2)CC1,41.6
7,Cc1c(C)n(CCCN(C)C)c2ncnc(Nc3ccccc3)c12,> 48.5
8,COc1ccccc1-n1c(O)c(/C=C2\C=Nc3ccccc32)c(=O)[nH]c1=O,4.4
9,CCOC(=O)N1CCN(C(=O)c2ccc(S(=O)(=O)Nc3ccc(C)cc3)cc2)CC1,> 64.7
10,CCc1ccc(NC(=O)NC(C)c2ccc3c(c2)OCO3)cc1 (centres undefined),1
11,Fc1ccc2nc(N3CCCC3)sc2c1,15.6
12,Cc1cccc(NC(=O)c2ccc3c(c2)OCCO3)n1,32.8
13,O=C(CSc1ccncc1)Nc1ccc2ccccc2c1,2.3
14,COc1ccc2c(c1)C1=C(CC2)C(c2ccc(C)cc2)NC(=S)N1 (centres undefined),10.5
15,O=C(C(=O)N1CCN(c2ccc(F)cc2)CC1)c1c[nH]c2ccccc12,6.9
16,O=C(COC(=O)c1ccc2ccccc2n1)Nc1ccccc1F,8.9
17,Nn1c(-c2ccccc2)nc2ccccc2c1=O,> 35.6
18,CCN1CCN(Cc2cccnc2)CC1,20.2
19,Cc1cc(C)cc(Nc2ccc3nonc3c2[N+](=O)[O-])c1,1.1
20,COc1ccccc1CC(=O)N1CCOCC1,34.6

row,Structure (SMILES),solubility kinetic [µg/mL]
1,Cc1ccc(OCC(=O)Nc2ccc3c(c2)C(=O)NC3=O)c(C)c1,0.6
2,COc1ccc(C2(C)NC(=O)N(CC(=O)NC3CC3)C2=O)cc1 (centres undefined),43.3
3,CCOc1cc(C(=O)NC(C)CCc2ccccc2)cc(OCC)c1OCC (centres undefined),0.8
4,O=C(O)/C=C/C(=O)Nc1cc(F)ccc1F,> 34.1
5,CC(C)CNc1nc(N)c([N+](=O)[O-])c(NC2CCCCC2)n1,< 0.1
6,COc1ccc(OC)c(N/C=C/C(=O)c2ccccc2)c1,2.1
7,O=C(COC(=O)c1cc(S(=O)(=O)N2CCOCC2)ccc1F)Nc1ccc2c(c1)OCO2,54.8
8,CCc1ncc(C)nc1CC,6.7
9,CC(=O)c1ccccc1NS(=O)(=O)c1ccc2c(c1)CC(=O)N2,29.9
10,Cc1cc(C)cc(C(=O)N(C)C2CCCN(Cc3ccccc3F)C2)c1 (centres undefined),> 53.2
11,N#CCCN1CCN(C(=O)c2c(N)no[n+]2[O-])CC1,> 39.9
12,CC1Oc2ccccc2N(CC(=O)Nc2ccc(F)cc2)C1=O (centres undefined),12.6
13,CCCCN(c1ccccc1)S(=O)(=O)c1cccc2cccnc12,9
14,Cc1ccc(S(=O)(=O)NC2=NCN(C)CN2)cc1[N+](=O)[O-],> 47
15,Cc1ccccc1OCC(=O)Nc1ccccc1NC(=O)c1ccco1,36.7
16,NC(=O)c1cccnc1,2.8
17,S=C(NCC1CCCO1)NC1CCCCC1 (centres undefined),> 36.4
18,CC(CN1CCCCC1)OC(=O)c1ccc2c(c1)OCCO2.Cl (centres undefined),> 51.3
19,O=C(c1cc2cc(F)ccc2[nH]1)N1CCC2(CC1)OCCO2,20.2
20,Cn1c(/C=C/c2ccc(Cl)cc2)c([N+](=O)[O-])c(=O)n(C)c1=O,5

row,Structure (SMILES),solubility kinetic [µg/mL]
1,O=C(Nc1cccc(F)c1)Nc1c[nH]c(=O)[nH]c1=O,2.4
2,CCOC(=O)c1ccc(N2C(=O)CC(Sc3nc(C)cc(C)n3)C2=O)cc1 (centres undefined),4
3,Cc1cc(Cl)n2c(nc3cc(F)c(F)cc32)c1C#N,4.7
4,Cc1c(NCc2ccccc2O)c(=O)n(-c2ccccc2)n1C,> 46.4
5,COc1ccc(NC(=O)c2c(N)cnn2C)cc1,> 36.9
6,COC(=O)c1scc(S(=O)(=O)C(C)(C)C)c1N,26
7,CCC(C)c1ccccc1NC(=S)NC(=O)c1ccco1 (centres undefined),6
8,COc1ccccc1/C=[N+](\[O-])C1SC(=S)N(C)C1(C)C (centres undefined),> 46.6
9,CCOc1ccc(N(C(C)C(=O)N2CCCC2)S(C)(=O)=O)cc1 (centres undefined),> 51.1
10,CC1NC(=O)NC1CCCCCC(=O)Nc1ccc(F)cc1 (centres undefined),> 46.1
11,CC(O)CNCc1ccccc1C(F)(F)F.Cl (centres undefined),> 40.5
12,CC12CN3CC(C)(CN(C1)C3c1ccccc1)C2O (centres undefined),> 38.8
13,O=C(COC(=O)C1=COCCO1)NCc1ccc(F)cc1,40.3
14,O=C(O)c1cnn2c(-c3ccccc3)ccnc12,> 35.9
15,O=S(=O)(Nc1ccc(Cl)cc1)c1ccc2c(c1)CCO2,> 46.5
16,O=C(c1cc2ccccc2cc1O)N1CCN(c2ccccn2)CC1,32.9
17,Cc1ccc(NC(=O)CNCc2ccccc2)c(Br)c1,34.3
18,CN1CCN(C(=O)c2ccc(Oc3ccc([N+](=O)[O-])cc3)cc2)CC1,> 51.2
19,COCC(=O)NC1CCCCCC1,> 27.8
